Literature values in patent US20090318295A1, “Solid herbicidal formulation of N-(phosphono-methyl)glycine and process for its preparation” (priority 2002, published 2009).
In brackets after ≈: the same amount, converted by molar mass.

O=C(O)CNCP(=O)(O)O [Glyphosate, N-(phosphonomethyl)glycine]
solubility in water: 12 mg/mL (≈ 71 mM)
